# Read-outs that look alike come from different tables or passages of the source.
# Key:
# gp120 = gp120 (Human immunodeficiency virus type 1 group M subtype B, UniProt P03375); assay: biochemical; type: binding, HIV-1
# MT-2 cells = assay: Cytotoxicity in MT-2 cells (XTT); type: cell-based; conditions: for CC50: MT-2 cells, XTT, four days, read-out: MT-2 Cells CC50
# How it was run: (§1)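 XTT viability read-out: MT-2 cells (10^5 cells/ml) incubated with graded compound concentrations four days at 37° C; PBMC at 5×10^5 cells/ml, measured after seven days. CC50 derived from percentage cytotoxicity.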
# [1] = test system: CD4-dependent virus (ADA); type: cell-based; conditions: ADA in Cf2Th-CD4+-CCR5+ target cells, FIG. 5; read-out: IC50, inhibition of the CD4-dependent virus
# HIV-1IIIB gp120 and sCD4 = molecular target: T1, HIV-1IIIB gp120 and sCD4 (Human immunodeficiency virus type 1 group M subtype B, UniProt P03375); assay: biochemical; type: binding; conditions: read-out: IC50 (μM ± SD), interaction HIV-1IIIB gp120 and sCD4
# T1 construct: recombinant gp120 from HIV-1IIIB and HIV-1MN
# Experimental: (§2) The compounds were incubated at graded concentrations with sCD4 (0.25 μg/ml) in the wells of polystyrene plates containing recombinant gp120, which was captured by coating the plates with a sheep anti-gp120 antibody D7324.
# HIV-1MN gp120 and sCD4 = molecular target: T2, HIV-1MN gp120 and sCD4 (Human immunodeficiency virus type 1 group M subtype B, UniProt P05877); assay: biochemical; type: binding; conditions: read-out: IC50 (μM ± SD), interaction HIV-1MN gp120 and sCD4
# T2 construct: recombinant gp120 from HIV-1IIIB and HIV-1MN
# Experimental: as §2
# CD4 = CD4 (Homo sapiens, UniProt P01730); assay: Surface plasmon resonance (SPR), ligand CD4; type: binding
# PBMC = assay: Cytotoxicity in PBMC (XTT); type: cell-based; conditions: for CC50: PBMC, XTT, seven days, read-out: PBMC CC50; for % toxicity at that dose (number in parenthesis), PBMC: at the dose given as CC50 bound
# Experimental: (§3) Cytotoxicity of small molecules in MT-2 cells and PBMC was measured by the XTT ((sodium 3′-(1-(phenylamino)-carbonyl)-3,4-tetrazolium-bis(4-methoxy-6-nitro)benzene-sulfonic acid hydrate)) method. Briefly, for MT-2 cells, 100 μl of a small molecule at graded concentrations was added to an equal volume of cells (10^5 cells/ml) in 96-well plates followed by incubation at 37° C. for four days, which ran parallel with the neutralization assay in MT-2 (except medium was added instead of virus). In the case of PBMC, 5×10^5 cells/ml was used and the cytotoxicity was measured after seven days. […] The percentage cytotoxicity and the CC50 values were calculated as described above.
# [2] = test system: primary HIV-1 isolate BCF02 (Group 0, R5); assay: Neutralization assay in PBMC (p24 ELISA); conditions: read-out: IC50 (μM) ± S.D., inhibitory activity on infection
# Experimental: (§4) The inhibitory activity of small molecules on infection by primary HIV-1 isolates was determined. PBMCs were isolated from the blood of healthy donors at the New York Blood Center by standard density-gradient centrifugation using Histopaque-1077 (Sigma-Aldrich). The cells were cultured at 37° C. for 2 h. Non-adherent cells were collected and resuspended at 5×10^6 cells/ml in RPMI-1640 medium containing 10% (v/v) fetal bovine serum, 5 μg/ml of phytohemagglutinin, and 100 U/ml of IL-2 (Sigma-Aldrich), followed by incubation at 37° C. for three days.
# [3] = test system: primary HIV-1 isolate 93TH060 (subtype E, R5); assay: Neutralization assay in PBMC (p24 ELISA); conditions: read-out: IC50 (μM) ± S.D., inhibitory activity on infection
# Experimental: as §4
# [4] = test system: HIV-1 RF/L-323-12-3 (protease resistant isolate); assay: Multi-cycle neutralization assay in MT-2 cells
# [5] = test system: AZT-resistant (AZT-R) HIV-1 strain; assay: Multi-cycle neutralization assay in MT-2 cells
# [6] = test system: laboratory-adapted HIV-1 IIIB strain; assay: microbe, parasite or virus in culture; conditions: Human immunodeficiency virus 1, IIIB, MT2, read-out: IC50 (μM) ± S.D., inhibitory activity on infection
# [7] = Cytotoxicity in MT-2 cells (XTT); type: cell-based; conditions: human; MT-2 cells, XTT, four days
# How it was run: as §1
# HIV-1 BaL = assay: Neutralization assay in PBMC (p24 ELISA)
# Experimental: (§5) PBMCs were isolated from the blood of healthy donors at the New York Blood Center by standard density-gradient centrifugation using Histopaque-1077 (Sigma-Aldrich). The cells were cultured at 37° C. for 2 h. Non-adherent cells were collected and resuspended at 5×10^6 cells/ml in RPMI-1640 medium containing 10% (v/v) fetal bovine serum, 5 μg/ml of phytohemagglutinin, and 100 U/ml of IL-2 (Sigma-Aldrich), followed by incubation at 37° C. for three days.
# HIV-1 SF162 = assay: Neutralization assay in PBMC (p24 ELISA); conditions: read-out: IC50 (μM) ± S.D., inhibitory activity on infection
# Experimental: as §5
# [8] = Cytotoxicity in PBMC (XTT); type: cell-based; conditions: human; PBMC, XTT, seven days
# Experimental: as §3
# [9] = test system: primary HIV-1 isolate 93BR029 (clade F, R5); assay: Neutralization assay in PBMC (p24 ELISA); conditions: read-out: IC50 (μM) ± S.D., inhibitory activity on infection
# Experimental: as §5
# [10] = test system: primary HIV-1 isolate 93IN101 (subtype C, R5); assay: Neutralization assay in PBMC (p24 ELISA); conditions: read-out: IC50 (μM) ± S.D., inhibitory activity on infection
# Experimental: as §4
# HIV-1 SF2 = assay: Multi-cycle neutralization assay in MT-2 cells
# HIV-1 89.6 = assay: Neutralization assay in PBMC (p24 ELISA); conditions: read-out: IC50 (μM) ± S.D., inhibitory activity on infection
# Experimental: as §4
# [11] = test system: primary HIV-1 isolate 92US657 (subtype B, R5); assay: Neutralization assay in PBMC (p24 ELISA); conditions: read-out: IC50 (μM) ± S.D., inhibitory activity on infection
# Experimental: as §5
# HIV-1 MN = assay: Multi-cycle neutralization assay in MT-2 cells
# Experimental: In brief, 1×10^4 MT-2 cells were infected with HIV-1 at 100 TCID50 (50% tissue culture infective dose) (0.01MOI) in 200 μl medium in the presence or absence of small molecules at graded concentrations and incubated overnight. The culture supernatants were then removed and replaced with fresh media. On the fourth day post-infection, 100 μl of culture supernatants were collected from each well, mixed with equal volume of 5% Triton X-100 and tested for p24 antigen by sandwich-ELISA. The percent inhibition of p24 production and IC50 values were calculated by the GraphPad Prism software (GraphPad Software Inc.).
# [12] = test system: primary HIV-1 isolate RU570 (clade G, R5); assay: Neutralization assay in PBMC (p24 ELISA); conditions: read-out: IC50 (μM) ± S.D., inhibitory activity on infection
# Experimental: as §5
# HIV-1 RF = assay: Multi-cycle neutralization assay in MT-2 cells
# [13] = test system: primary HIV-1 isolate 92UG031 (subtype A, R5); assay: Neutralization assay in PBMC (p24 ELISA); conditions: read-out: IC50 (μM) ± S.D., inhibitory activity on infection
# Experimental: as §4
# [14] = test system: laboratory-adapted HIV-1 IIIB strain
# TZM-bl cells = assay: Cytotoxicity in TZM-bl cells (XTT); type: cell-based
# How it was run: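 TZM-bl cells (10^5/ml) combined with equal volumes of compound at graded concentrations and incubated 3 days at 37° C. Viability measured colorimetrically by XTT tetrazolium dye reduction.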
# [15] = test system: pNL4-3 gp41 (36G) V38E, N42S (fusion resistant isolate); type: cell-based, HIV-1; conditions: subtype B, MT-2, X4, fusion resistant isolate, read-out: IC50 (μM) ± S.D., inhibitory activity on infection
# [16] = captured ELISA, sCD4 0.25 μg/ml
# [17] = Human immunodeficiency virus 1, PBMC
# [18] = Human immunodeficiency virus 1, MT2, read-out: IC50 (μM) ± S.D., inhibitory activity on infection
# [19] = at the dose given as CC50 bound
smiles,measurement,setting,value
CC1(C)CC(NC(=O)C(=O)Nc2ccc(Br)cc2)CC(C)(C)N1 [NBD-557],Kd,gp120,42 µM
same,Koff (s − 1),gp120,4.7 × 10−2 s − 1
same,Rmax (RU),gp120,1.48 RU
same,CC50,MT-2 cells,223 µM
same,IC50,[1],13.4 µM
same,IC50,HIV-1IIIB gp120 and sCD4,3.08 ± 0.6 µM
same,IC50,HIV-1MN gp120 and sCD4,4.21 ± 1.1 µM
same,binding to CD4,CD4; SPR,not to CD4
same,CC50,PBMC,603 µM
CN1C(=O)[C@@H](c2cc(Cl)c(O)c(Cl)c2)NC(=O)[C@@H]2NC(=O)[C@@H](c3cc(Cl)c(O)c(Cl)c3)NC(=O)[C@H](NC(=O)C(=O)c3cc(Cl)c(O)c(Cl)c3)Cc3c[nH]c4c(cccc34)-c3cc2cc(c3O)Oc2ccc(cc2)C[C@H]1C(=O)N[C@@H](C(=O)O)c1ccc(O)cc1 [Chloropeptin],Kd,"gp120; SPR, ligand gp120",2.5 µM
same,Rmax (RU),"gp120; SPR, ligand gp120",1160 RU
same,koff,"gp120; SPR, ligand gp120",0.011 s⁻¹
same,IC50,HIV-1IIIB gp120 and sCD4; [16],0.31 µM
same,IC50,HIV-1MN gp120 and sCD4; [16],0.31 ± 0.2 µM
same,Kd,CD4,5.4 µM
same,Rmax (RU),"CD4; SPR, ligand CD4",76.8 RU
same,koff,CD4; read-out: Koff (s − 1),0.018 s⁻¹
"Cc1nc(C(NC(=O)C(=O)Nc2ccc(Cl)c(F)c2)C2CCCCN2)sc1CO (stereo not shown) [Compound 27, N^1-(4-chloro-3-fluorophenyl)-N^2-((5-(hydroxymethyl)-4-methylthiazol-2-yl)(piperidin-2-yl)methyl)oxalamide.2HCl]",IC50,[2]; [17],~84 µM
same,IC50,[3]; [17],11 ± 0.5 µM
same,IC50,[4]; [18],6.2 ± 0.9 µM
same,IC50,[5]; [18],6.5 ± 0.9 µM
same,IC50,[6],4.1 ± 0.7 µM
same,CC50 at 4 days,[7],~83 µM
same,IC50,"HIV-1 BaL; Human immunodeficiency virus 1, BAL, read-out: IC50 (μM) ± S.D., inhibitory activity on infection",43.8 ± 5 µM
same,IC50,HIV-1 SF162; [17],16.3 ± 1.7 µM
same,CC50 at 7 days,[8],> 104 µM
same,"% toxicity at that dose (number in parenthesis), PBMC",PBMC,(40%)
same,IC50,[9]; [17],9.9 ± 0.8 µM
same,IC50,[10]; [17],~84 µM
same,IC50,HIV-1 SF2; [18],35.7 ± 2.6 µM
same,IC50,HIV-1 89.6; [17],3.2 ± 0.7 µM
same,IC50,[11]; [17],12.5 ± 2.4 µM
same,IC50,HIV-1 MN; [18],18.5 ± 1.8 µM
same,IC50,[12]; [17],15.3 ± 1.7 µM
same,IC50,HIV-1 RF; [18],13.8 ± 2.3 µM
same,IC50,[13]; [17],10.7 ± 0.3 µM
"Cc1ccc(NC(=O)C(=O)NC(c2nc(C)c(CCO)s2)C2CCCCN2)cc1F.Cl (stereo not shown) [Compound 38, N^1-(3-fluoro-4-methylphenyl)-N^2-((5-(2-hydroxyethyl)-4-methylthiazol-2-yl)(piperidin-2-yl)methyl)oxalamide.HCl]",IC50,"[2]; BCF02, Group 0, PBMC, R5, primary isolate",~87 µM
same,IC50,"[3]; 93TH060, subtype E, PBMC, R5, primary isolate",14.7 ± 0.7 µM
same,IC50,"[4]; read-out: IC50 (μM) ± S.D., inhibitory activity on infection, HIV-1 RF/L-323-12-3, subtype B, MT-2, X4, protease resistant isolate",10.2 ± 0.4 µM
same,IC50,"[5]; read-out: IC50 (μM) ± S.D., inhibitory activity on infection, AZT-R, subtype B, MT-2, X4, RT-resistant isolate",14.5 ± 1.5 µM
same,CC50,MT-2 cells; listed as NBD-110017,> 87 µM
same,CC50,MT-2 cells,~85 µM
same,"% toxicity at that dose (number in parenthesis), MT-2 cells",MT-2 cells; [19],30%
same,IC50,"HIV-1 BaL; read-out: IC50 (μM) ± S.D., inhibitory activity on infection, BaL, subtype B, R5, laboratory strain",30.3 ± 1.4 µM
same,IC50,"HIV-1 SF162; SF162, subtype B, PBMC, R5, laboratory strain",16.5 ± 4 µM
same,CC50,PBMC,> 64 µM
same,"% toxicity at that dose (number in parenthesis), PBMC",PBMC,0%
same,IC50,"[9]; 93BR029, subtype F, PBMC, R5, primary isolate",8.6 ± 0.4 µM
same,IC50,"[14]; read-out: IC50 (μM) ± S.D., inhibitory activity on infection, IIIB, subtype B, MT-2, X4, laboratory strain",5.3 ± 1.7 µM
same,IC50,"[14]; read-out: MT-2 Cells IC50 (μM ± SD), multi-cycle assay, MT-2 cells, HIV-1 IIIB",3.7 ± 0.7 µM
same,IC50,"[10]; 93IN101, subtype C, PBMC, R5, primary isolate",> 87 µM
same,CC50,"TZM-bl cells; TZM-bl cells, XTT, 3 days, read-out: TZM-bl cells CC50 (μM ± SD)",> 85 µM
same,"% toxicity at that dose (number in parenthesis), TZM-bl cells",TZM-bl cells; [19],40%
same,IC50,[15],8.4 ± 0.4 µM
same,IC50,"HIV-1 SF2; read-out: IC50 (μM) ± S.D., inhibitory activity on infection, SF2, subtype B, MT-2, R5X4, laboratory strain",27.6 ± 1.7 µM
same,IC50,"HIV-1 89.6; 89.6, subtype B, PBMC, R5X4, laboratory strain",14.7 ± 1.1 µM
same,IC50,"[11]; 92US657, subtype B, PBMC, R5, primary isolate",6.8 ± 0.7 µM
same,IC50,"HIV-1 MN; read-out: IC50 (μM) ± S.D., inhibitory activity on infection, MN, subtype B, MT-2, X4, laboratory strain",14.9 ± 2.6 µM
same,IC50,"[12]; RU570, subtype G, PBMC, R5, primary isolate",15.8 ± 0.9 µM
same,IC50,"HIV-1 RF; read-out: IC50 (μM) ± S.D., inhibitory activity on infection, RF, subtype B, MT-2, R5X4, laboratory strain",12.4 ± 1.4 µM
same,IC50,"[13]; 92UG031, subtype A, PBMC, R5, primary isolate",10.1 ± 1.8 µM

# Source: US20140377219A1, “HIV INHIBITORS” (New york Blood Center, Inc., priority 2011, published 2014)
